The text below walks through data of patent US20250025466A1, “New oral pharmaceutical composition and dose regimen for the therapy of progressive fibrosing interstitial lung diseases” (Boehringer Ingelheim International GmbH, priority 2021, published 2025).

Marks after values point to notes of the source that are not given here.

In series [1] the test system is skin fibrosis. Conditions: induced by bleomycin or topoisomerase I and chronic graft-versus-host disease; cited from earlier work.
Series [2] has as its system dextran sulfate sodium-induced colitis ulcerosa. As to conditions: mouse, in vivo; cited from earlier work.
In series [3] the test system is patients with IPF. Conditions: in vivo; cited from earlier work.
Series [4] deals with patients with IPF. Conditions: IPF with mild or moderate impairment of FVC (≥50% predicted); cited from earlier work.
The test system of series [5] is human fetal lung fibroblast strain (GM06114). As to conditions: in the presence of PGE2; cited from earlier work.
Series [6] relates to normal human lung fibroblasts (NHLFs). Conditions: stimulated by bleomycin or 8-epi-PGF2α; cited from earlier work.
The subject of series [7] is IPF patients. The experiment in a line: Phase II clinical trial in IPF patients: disposition / premature discontinuation. Type of series: in vivo, human. Conditions: 18 mg b.i.d.
Procedure: The participants were divided into 2 groups by chance (the “active agent group” and the “placebo group”). […] One 12 mg placebo tablet and one 6 mg placebo tablet (both containing no active ingredient, see Table 1) was administered orally to the patients of the second group twice daily (b.i.d.).
The “active agent group” and the “placebo group” were further distributed to two different groups regarding background medication: the “AF-group” (“antifibrotic background medication group”) and the “Non-AF-group” (“no antifibrotic background medication group”). […] The combination of both nintedanib and pirfenidone as background medication was not allowed in the “AF-group”.
The trial was a randomised, double-blind, placebo-controlled parallel group study.
The subject of series [8] is human lung fibroblasts. As to conditions: combination with nintedanib; WO2019/081235; cited from earlier work.
For series [9], the target named is PDE4 B subtype (Homo sapiens, UniProt Q07343). Conditions: disclosed in WO 2013/026797; cited from earlier work.
The test system of series [10] is IPF patients. Conditions: male, human, in vivo, 13 weeks.
The subject of series [11] is IPF patients. The experiment in a line: Phase II clinical trial in IPF patients: Treatment Emergent Adverse Events.
In series [12] the test system is tuberculosis model. Conditions: rabbit, in vivo; cited from earlier work.
Series [13] concerns type II alveolar epithelial cells. Conditions: cited from earlier work.
Series [14] deals with human lung fibroblast model (WI-38). As to conditions: in the presence of forskolin; cited from earlier work.
Series [15] relates to bleomycin mice. As to conditions: mouse, in vivo; cited from earlier work.
The subject of series [16] is chronic graft-versus-host disease. As to conditions: cited from earlier work.
The test system of series [17] is diethylnitrosamine-induced liver fibrosis. As to conditions: rat, in vivo; cited from earlier work.
The test system of series [18] is normal human lung fibroblasts (NHLFs). As to conditions: in the presence of indacaterol; cited from earlier work.
Series [19] relates to bleomycin-induced fibrosis. Conditions: cited from earlier work.
For series [20], the system named is normal human lung fibroblasts (NHLFs). Conditions: in the presence of PGE2; cited from earlier work.
Series [21] shares this test system. As to conditions: cited from earlier work.
For series [22], the system named is human fetal lung fibroblasts (HFL-1). Conditions: cited from earlier work.
The subject of series [23] is bleomycin mice. As to conditions: mouse, in vivo; cited from earlier work. This is another data set of the same source.
In series [24] the test system is bile duct ligation-induced hepatic fibrosis. As to conditions: rat, in vivo; cited from earlier work.
Series [25] concerns bleomycin-induced fibrosis. As to conditions: administered from the beginning of bleomycin challenge; cited from earlier work.
For series [26], the system named is renal interstitial fibrosis. As to conditions: mouse, in vivo; cited from earlier work.
The test system of series [27] is trinitrobenzene sulfonic acid-induced colitis. As to conditions: rat, in vivo; cited from earlier work.
In series [28] the test system is cecal abrasion model. As to conditions: mouse, in vivo; cited from earlier work.
In series [29] the test system is mouse primary tubular epithelial cells. Conditions: cited from earlier work.
The subject of series [30] is hepatic stellate cells. Conditions: cited from earlier work.
The subject of series [31] is A549 human alveolar epithelial cell line. As to conditions: TGF-β1-stimulated; cited from earlier work.
For series [32], the system named is sponge implant model. Conditions: subcutaneous or intraperitoneal implant; cited from earlier work.
Setting [33] is: AF-group nintedanib background, 18 mg b.i.d.
[34] abbreviates: AF-group pirfenidone background, 18 mg b.i.d.
Setting [35] is: Total (Non-AF + AF), 18 mg b.i.d.

Sequence of PDE4 B subtype (Q07343 whole entry): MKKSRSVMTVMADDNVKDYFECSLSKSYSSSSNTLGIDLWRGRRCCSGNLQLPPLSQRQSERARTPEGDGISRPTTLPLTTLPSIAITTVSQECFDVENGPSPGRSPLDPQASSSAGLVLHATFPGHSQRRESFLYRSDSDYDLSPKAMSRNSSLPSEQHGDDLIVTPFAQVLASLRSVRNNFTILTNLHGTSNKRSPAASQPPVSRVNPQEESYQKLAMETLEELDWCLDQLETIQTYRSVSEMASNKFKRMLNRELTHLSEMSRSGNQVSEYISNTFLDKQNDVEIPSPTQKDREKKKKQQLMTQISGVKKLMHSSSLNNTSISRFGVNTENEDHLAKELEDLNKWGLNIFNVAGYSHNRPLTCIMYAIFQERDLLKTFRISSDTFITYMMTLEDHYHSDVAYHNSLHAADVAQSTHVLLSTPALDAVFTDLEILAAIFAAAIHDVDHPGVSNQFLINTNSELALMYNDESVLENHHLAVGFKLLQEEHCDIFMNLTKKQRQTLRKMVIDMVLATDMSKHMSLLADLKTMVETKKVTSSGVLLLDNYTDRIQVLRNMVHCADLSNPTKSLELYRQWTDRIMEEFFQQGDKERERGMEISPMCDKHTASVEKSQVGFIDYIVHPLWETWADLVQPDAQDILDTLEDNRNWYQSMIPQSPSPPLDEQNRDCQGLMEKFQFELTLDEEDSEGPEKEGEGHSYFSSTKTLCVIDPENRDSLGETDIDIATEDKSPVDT

Take `CCOc1cc([C@@H](CS(C)(=O)=O)N2C(=O)c3cccc(NC(C)=O)c3C2=O)ccc1OC` [apremilast]: the Skin fibrosis entry in series [1] is recorded as “inhibited”. For the same compound, in series [2], the “Fibrosis in colon, collagen deposition, fibrosis-related gene expression” value was “inhibited fibrosis in colon, collagen deposition, and the expression of genes related to fibrosis”.
With `Cc1ccc(=O)n(-c2ccccc2)c1` [pirfenidone], the “Most prominent side effects” value in series [3] was “gastrointestinal events, particularly diarrhea, nausea, vomiting, abdominal pain, decreased appetite and a decreased body weight”. The “Effect on FVC decline” value in series [4] was “can only reduce the decline in FVC”.
For the compound `O=C(Nc1c(Cl)c[n+]([O-])cc1Cl)c1ccc(OC(F)F)c(OCC2CC2)c1` [roflumilast N-oxide], the “ICAM-1 and eotaxin release, proliferation, α-SMA, CTGF, FN mRNA” value in series [5] was “inhibit intercellular adhesion molecule-1 and cotaxin release stimulated by TNF-α”. For the same compound, the “NHLF responses (collagen synthesis, proliferation, ROS and F2-isoprostane formation, NADPH oxidase 4 expression)” value in [6] was “inhibited”.
With `[O-][S@+]1CCc2nc(N3CCC(c4ncc(Cl)cn4)CC3)nc(NC3(CO)CCC3)c21` [Comp. of Form. III], in [7] (AF-group), the “Not completed observation period: Death, %” value turned out to be 2.0%; the “Not completed planned treatment period (prematurely discontinued trial medication), %” value was found to be 20.4%; the “Not completed treatment period: Adverse Event, %” value was 20.4%. In series [7] (Non-AF-group), the “Not completed observation period: Death, %” value is reported as 2.1%; the “Not completed planned treatment period (prematurely discontinued trial medication), %” value was 10.4%; the “Not completed treatment period: Adverse Event, %” value worked out at 6.3%. Moreover, the “Effect on fibroblast proliferation” value in series [8] is listed as “synergistic overadditive effect”. The PDE4 subtype preference entry in [9] is reported as “inhibit preferentially the PDE4 B subtype”. Also, in series [10], the “Moderate cases of diarrhoea” value came out at 2.1% and the “Severe case of diarrhoea” value amounted to 1.0%. In series [11] (setting [33]), the “AE: Infections and infestations” value is 6 (23.1) n (%); the “Serious AEs: Results in Death, %” value is 0%. Further, in series [11] (setting [34]), the “AE: Infections and infestations” value is recorded as 1 (4.3) n (%); the “Serious AEs: Results in Death, %” value is on record as 4.3%. For the same compound, in series [11] (AF-group, 18 mg b.i.d.), the “AE: Infections and infestations” value is recorded as 7 (14.3) n (%); the “Patients with AE resulting in death” value is 1 (2.0) n (%). The “SAE: General disorders and administration side conditions, fatal events” value in series [11] (AF-group, 18 mg b.i.d., bracketed value marked * (fatal events)) was “[1 (2.1)]* n (%)”. The “SAE: Vasculitis” value in series [11] (AF-group, 18 mg b.i.d., fatal event) was 1 (2.0)* n (%). In series [11] (Non-AF-group, 18 mg b.i.d.), the “AE: Infections and infestations” value is on record as 7 (14.6) n (%); the “Patients with AE resulting in death” value was 1 (2.1) n (%); the “SAE: Infections and Infestations” value is reported as 1 (2.1) n (%). Besides, the “SAE: Covid-19 pneumonia” value in series [11] (Non-AF-group, 18 mg b.i.d., fatal event) is on record as 1 (2.1)* n (%). Moreover, in [11] (setting [35]), the “AE: Infections and infestations” value is given as 14 (14.4) n (%); the “Patients with AE resulting in death” value is 2 (2.1) n (%); the “SAE: Covid-19 pneumonia” value was 1 (1.0) n (%); the “SAE: Infections and Infestations” value is on record as 1 (1.0) n (%). For the same compound, the “Patients who experienced an AE resulting in death” value in series [11] (active agent group, all, one Covid-19 pneumonitis, one unconfirmed vasculitis) amounted to 2 patients.
On to `CCOc1cc([C@@H](CS(C)(=O)=O)N2Cc3cccc(NC(=O)C4CC4)c3C2=O)ccc1OC` [CC-11050], for which the “Pulmonary damage and fibrosis” value in series [12] is given as “inhibited”.
As to `O=C(Nc1c(Cl)cncc1Cl)c1ccc(OC(F)F)c(OCC2CC2)c1` [roflumilast], the “Lung hydroxyproline content and mRNA expression of TNF-α, FN, CTGF” value in series [13] (mouse, in vivo) was “lowered lung hydroxyproline content and mRNA expression of TNF-α, fibronectin (FN), and CTGF”. Also, the “Potency relative to pirfenidone and nintedanib” value in series [13] (therapeutic regimen) was “therapeutically equipotent to pirfenidone and nintedanib”. In addition, in series [14], the “TGF-β-induced mRNA expression of collagen α1, CTGF, and FN” value is “inhibited”. In series [15], the “Levels of the amino acids glycine and proline” value was “lowered”; the “Lung glutathione and plasma tetrahydrobiopterin” value is given as “increased”. In addition, the “Fibrosis, collagen deposition, hydroxyproline, TGF-β1, cell infiltration, IL-6 and IL-1β mRNA” value in series [16] (mouse, in vivo) is “inhibited fibrosis, collagen deposition, hydroxyproline and TGF-β1 content, cell infiltration, and expression of mRNA for IL-6 and IL-1β”. Further, the Lung fibrosis result in [16] (oral) is reported as “attenuated”. Besides, in series [17], the “Liver fibrosis, hydroxyproline deposition, TGF-β1 expression” value was “inhibited diethylnitrosamine-induced liver fibrosis, hydroxyproline deposition, and TGF-β1 expression”. Moreover, the “TGF-β1-induced CTGF mRNA, α-SMA protein expression and FN” value in series [18] is “inhibition”. Moreover, the “Right ventricular hypertrophy and vascular remodeling (pulmonary arteries)” value in [19] (in vivo) is given as “positively influenced”. The “Fibrosis, hydroxyproline content and mRNA expression in lung extracts” value in series [19] (lung extracts) was “inhibited histologically assessed fibrosis, hydroxyproline content”. Besides, the “Activity in preventive and therapeutic protocols” value in series [19] (oral) was “active both in preventive and in therapeutic protocols in a dose-dependent manner”.
Consider `COc1ccc(C(=O)Nc2c(Cl)cncc2Cl)cc1OC1CCCC1` [piclamilast], for which the “TGF-β-induced fibroblast-to-myofibroblast conversion (α-SMA expression)” value in series [20] was “inhibited”. Besides, the “IL-1β plus bFGF-stimulated fibroblast proliferation” value in series [21] was “inhibition of IL-1β plus bFGF-stimulated fibroblast proliferation”.
Consider `COC(=O)c1ccc2c(c1)NC(=O)/C2=C(\Nc1ccc(N(C)C(=O)CN2CCN(C)CC2)cc1)c1ccccc1` [nintedanib], for which, in series [3], the “Most prominent side effects” value was “gastrointestinal events, particularly diarrhea, nausea, vomiting, abdominal pain, decreased appetite and a decreased body weight”. Moreover, the “Effect on FVC decline” value in series [4] was “can only reduce the decline in FVC”.
For `COc1ccc([C@]2(C#N)CC[C@@H](C(=O)O)CC2)cc1OC1CCCC1` [cilomilast], the “FN-induced chemotaxis and contraction of collagen gels” value in series [22] was “inhibited FN-induced chemotaxis and contraction of collagen gels”. In series [23], the “Late-stage lung fibrosis and collagen content” value was “inhibit late-stage lung fibrosis and tended to reduce collagen content”; the “TGF-β1 and collagen type (Col) 1A1 expression” value was “no effect”.
Consider `COc1ccc(C2CNC(=O)C2)cc1OC1CCCC1` (stereo not shown) [rolipram], for which, in series [24], the “Collagen deposition, α-SMA staining and mRNA expression” value is “inhibited collagen deposition, α-smooth muscle actin (α-SMA) staining, and mRNA expression”. Moreover, the “Fibrotic score, hydroxyproline content, serum TNF-α” value in [25] was “inhibit fibrotic score, hydroxyproline content, and serum tumor necrosis factor-α (TNF-α)”. In addition, the Renal interstitial fibrosis entry in series [26] is given as “inhibit renal interstitial fibrosis”. For the same compound, the “Collagen and TGF-β1 in colonic tissue” value in series [27] is “inhibited collagen and TGF-β1”. Besides, in series [28], the Fibrotic reactions entry is “inhibited fibrotic reactions”. Moreover, the “TGF-β-induced damage, FN expression, deficiency of mitochondrial biogenesis” value in series [29] was “inhibited TGF-β-induced damage, FN expression, and deficiency of mitochondrial biogenesis”. Moreover, the “FN-induced chemotaxis and contraction of collagen gels” value in [22] is “inhibited FN-induced chemotaxis and contraction of collagen gels”. Besides, the “mRNA expression of α-SMA and Col1A2” value in series [30] is “inhibited mRNA expression of α-SMA and Col1A2”. Moreover, the Epithelial-mesenchymal transition changes result in series [31] was “inhibited epithelial-mesenchymal transition changes like FN and collagen mRNA expression, although not α-SMA mRNA”. Besides, the “Intra-implant collagen and TGF-β1 deposition” value in series [32] is “inhibiting intra-implant collagen and TGF-β1 deposition”. The Skin fibrosis result in [1] is “inhibited”.
